Data published in patent US6355799B1, “Substituted benzene compounds, process for their preparation, and herbicidal and defoliant compositions containing them” (ISK Americas Incorporated, priority 1997, dated 2002).

Legend:
Format in all cases: in vivo
[1] = tested on: upland rice (Oryza sp., var. Tebonnet, RICE); experiment: Pre-emerge test, crop safety; settings: pre-emerge, 14 days after application, rating scale 0-100
Outline: (§1)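 Herbicidal damage is scored 0 (none) to 100 (complete plant death) two weeks after a simulated field spray. Rates span 15–1000 g ai/ha, delivered in acetone at 187 l/ha. For post-emergence treatments, plants have 2–3 leaves and the spray carries 0.25% v/v non-ionic surfactant.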

[2] = tested on: field corn (Zea mays L., var. Dekalb 535, CORN); experiment: Pre-emerge test, crop safety; settings: pre-emerge, 14 days after application, rating scale 0-100
Outline: as §1

[3] = tested on: upland rice (Oryza sp., var. Tebonnet, RICE); experiment: Post-emerge test, crop safety; settings: post-emerge, 14 days after application, rating scale 0-100
Outline: (§2)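 Plants grown in 10 cm pots of sandy loam mix received acetone-dissolved compounds through a moving flat-fan nozzle. Doses ranged from 15 to 1000 g ai/ha. Pre-emerge pots were seeded one day earlier, post-emerge pots 8–21 days earlier. Fourteen days on, each pot was graded 0–100 for damage.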

[4] = tested on: field corn (Zea mays L., var. Dekalb 535, CORN); experiment: Post-emerge test, crop safety; settings: post-emerge, 14 days after application, rating scale 0-100
Outline: as §2

[5] = tested on: redroot pigweed (Amaranthus retroflexus, AMARE); experiment: Pre-emerge test, greenhouse herbicide activity screening; settings: pre-emerge, 14 days after application, rating scale 0-100
Outline: as §1

[6] = tested on: lambsquarters (Chenopodium album, CHEAL); experiment: as above; settings: pre-emerge, 14 days after application, rating scale 0-100
Outline: (§3)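 Rating: 0–100 visual injury, 14 DAA. Application: acetone, 187 l/ha, 15–1000 g ai/ha, flat-fan track sprayer with nozzle 40–45 cm above soil or canopy. Post-emerge runs used 0.25% v/v surfactant on 2–3 leaf plants.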

[7] = tested on: ivyleaf morningglory (Ipomoea hederacea, IPOHE); experiment: as above; settings: pre-emerge, 14 days after application, rating scale 0-100
Outline: as §3

[8] = tested on: sicklepod (Cassia obtusifolia, CASOB); experiment: as above; settings: pre-emerge, 14 days after application, rating scale 0-100
Outline: as §3

[9] = tested on: large crabgrass (Digitaria sanguinalis, DIGSA); experiment: as above; settings: pre-emerge, 14 days after application, rating scale 0-100
Outline: as §3

[10] = tested on: barnyardgrass (Echinochloa crus-galli, ECHCG); experiment: as above; settings: pre-emerge, 14 days after application, rating scale 0-100
Outline: as §3

[11] = tested on: velvetleaf (Abutilon theophrasti, ABUTH); experiment: as above; settings: pre-emerge, 14 days after application, rating scale 0-100
Outline: as §3

[12] = tested on: johnsongrass (Sorghum halepense, SORHA); experiment: as above; settings: pre-emerge, 14 days after application, rating scale 0-100
Outline: as §3

[13] = tested on: green foxtail (Setaria viridis, SETVI); experiment: as above; settings: pre-emerge, 14 days after application, rating scale 0-100
Outline: as §3

[14] = tested on: lambsquarters (Chenopodium album, CHEAL); experiment: Post-emerge test, greenhouse herbicide activity screening; settings: post-emerge, 14 days after application, rating scale 0-100
Outline: as §2

[15] = tested on: ivyleaf morningglory (Ipomoea hederacea, IPOHE); experiment: as above; settings: post-emerge, 14 days after application, rating scale 0-100
Outline: as §2

[16] = tested on: sicklepod (Cassia obtusifolia, CASOB); experiment: as above; settings: post-emerge, 14 days after application, rating scale 0-100
Outline: as §2

[17] = tested on: large crabgrass (Digitaria sanguinalis, DIGSA); experiment: as above; settings: post-emerge, 14 days after application, rating scale 0-100
Outline: as §2

[18] = tested on: barnyardgrass (Echinochloa crus-galli, ECHCG); experiment: as above; settings: post-emerge, 14 days after application, rating scale 0-100
Outline: as §2

[19] = tested on: redroot pigweed (Amaranthus retroflexus, AMARE); experiment: as above; settings: post-emerge, 14 days after application
Outline: as §2

[20] = tested on: velvetleaf (Abutilon theophrasti, ABUTH); experiment: as above; settings: post-emerge, 14 days after application, rating scale 0-100
Outline: as §2

[21] = tested on: johnsongrass (Sorghum halepense, SORHA); experiment: as above; settings: post-emerge, 14 days after application, rating scale 0-100
Outline: as §2

[22] = tested on: green foxtail (Setaria viridis, SETVI); experiment: as above; settings: post-emerge, 14 days after application, rating scale 0-100
Outline: as §2

With `COc1c(Cl)cc(F)c(-n2c(=O)cc(C(F)(F)F)n(C)c2=O)c1NN=C1CCc2ccccc2C1` [15-18] the “phytotoxicity rating RICE” value ([1]; 63 g ai/ha) was 90, the “phytotoxicity rating RICE” value ([1]; 250 g ai/ha) was 99 and the “phytotoxicity rating CORN” value ([2]; 63 g ai/ha) was 80. For the same molecule, the “phytotoxicity rating CORN” value ([2]; 250 g ai/ha) was 95, the “Post-emerge Herbicidal Activity RICE (crop damage rating)” value ([3]; 63 g ai/ha) was 30 and the “Post-emerge Herbicidal Activity RICE (crop damage rating)” value ([3]; 250 g ai/ha) was 85. The “Post-emerge Herbicidal Activity CORN (crop damage rating)” value ([4]; 63 g ai/ha) was 20, the “Post-emerge Herbicidal Activity CORN (crop damage rating)” value ([4]; 250 g ai/ha) was 80 and the “phytotoxicity rating AMARE” value ([5]; 63 g ai/ha) was 100. For the same molecule, the “phytotoxicity rating AMARE” value ([5]; 250 g ai/ha) was 100, the “phytotoxicity rating CHEAL” value ([6]; 63 g ai/ha) was 100 and the “phytotoxicity rating CHEAL” value ([6]; 250 g ai/ha) was 100. For the same molecule, the “phytotoxicity rating IPOHE” value ([7]; 63 g ai/ha) was 90, the “phytotoxicity rating IPOHE” value ([7]; 250 g ai/ha) was 100 and the “phytotoxicity rating CASOB” value ([8]; 63 g ai/ha) was 100. The “phytotoxicity rating CASOB” value ([8]; 250 g ai/ha) was 100, the “phytotoxicity rating DIGSA” value ([9]; 63 g ai/ha) was 100 and the “phytotoxicity rating DIGSA” value ([9]; 250 g ai/ha) was 100. The “phytotoxicity rating ECHCG” value ([10]; 63 g ai/ha) was 75, the “phytotoxicity rating ECHCG” value ([10]; 250 g ai/ha) was 100 and the “phytotoxicity rating ABUTH” value ([11]; 63 g ai/ha) was 100. For the same molecule, the “phytotoxicity rating ABUTH” value ([11]; 250 g ai/ha) was 100, the “phytotoxicity rating SORHA” value ([12]; 63 g ai/ha) was 75 and the “phytotoxicity rating SORHA” value ([12]; 250 g ai/ha) was 100. The “phytotoxicity rating SETVI” value ([13]; 63 g ai/ha) was 95, the “phytotoxicity rating SETVI” value ([13]; 250 g ai/ha) was 100 and the “Post-emerge Herbicidal Activity CHEAL (phytotoxicity rating)” value ([14]; 63 g ai/ha) was 100. The “Post-emerge Herbicidal Activity CHEAL (phytotoxicity rating)” value ([14]; 250 g ai/ha) was 100, the “Post-emerge Herbicidal Activity IPOHE (phytotoxicity rating)” value ([15]; 63 g ai/ha) was 90 and the “Post-emerge Herbicidal Activity IPOHE (phytotoxicity rating)” value ([15]; 250 g ai/ha) was 100. The “Post-emerge Herbicidal Activity CASOB (phytotoxicity rating)” value ([16]; 63 g ai/ha) was 40, the “Post-emerge Herbicidal Activity CASOB (phytotoxicity rating)” value ([16]; 250 g ai/ha) was 100 and the “Post-emerge Herbicidal Activity DIGSA (phytotoxicity rating)” value ([17]; 63 g ai/ha) was 10. For the same molecule, the “Post-emerge Herbicidal Activity DIGSA (phytotoxicity rating)” value ([17]; 250 g ai/ha) was 100, the “Post-emerge Herbicidal Activity ECHCG (phytotoxicity rating)” value ([18]; 63 g ai/ha) was 10 and the “Post-emerge Herbicidal Activity ECHCG (phytotoxicity rating)” value ([18]; 250 g ai/ha) was 95. For the same molecule, the “Post-emerge Herbicidal Activity AMARE (phytotoxicity rating)” value ([19]; 63 g ai/ha, rating scale 0-100 (0 no damage, 100 complete death)) was 100, the “Post-emerge Herbicidal Activity AMARE (phytotoxicity rating)” value ([19]; 250 g ai/ha, rating scale 0-100) was 100 and the “Post-emerge Herbicidal Activity ABUTH (phytotoxicity rating)” value ([20]; 63 g ai/ha) was 100. The “Post-emerge Herbicidal Activity ABUTH (phytotoxicity rating)” value ([20]; 250 g ai/ha) was 100, the “Post-emerge Herbicidal Activity SORHA (phytotoxicity rating)” value ([21]; 63 g ai/ha) was 0 and the “Post-emerge Herbicidal Activity SORHA (phytotoxicity rating)” value ([21]; 250 g ai/ha) was 99. The “Post-emerge Herbicidal Activity SETVI (phytotoxicity rating)” value ([22]; 63 g ai/ha) was 20 and the “Post-emerge Herbicidal Activity SETVI (phytotoxicity rating)” value ([22]; 250 g ai/ha) was 80.
